Measurements reported in ChEMBL document CHEMBL1177805, “AMP-activated protein kinase (AMPK) activators from Myristica fragrans (nutmeg) and their anti-obesity effect” (Bioorg Med Chem Lett, 2010).
The source made the active and inactive calls. No cut-off for these calls is given here.

Target: 5'-AMP-activated protein kinase catalytic subunit alpha-2 (Mus musculus) (UniProt Q8BRK8)
Experiment: Activation of AMPK in mouse […] cells at 5 uM by Western blotting
Type: cell-based

Sequence of 5'-AMP-activated protein kinase catalytic subunit alpha-2 (Mus musculus) (Q8BRK8 whole entry): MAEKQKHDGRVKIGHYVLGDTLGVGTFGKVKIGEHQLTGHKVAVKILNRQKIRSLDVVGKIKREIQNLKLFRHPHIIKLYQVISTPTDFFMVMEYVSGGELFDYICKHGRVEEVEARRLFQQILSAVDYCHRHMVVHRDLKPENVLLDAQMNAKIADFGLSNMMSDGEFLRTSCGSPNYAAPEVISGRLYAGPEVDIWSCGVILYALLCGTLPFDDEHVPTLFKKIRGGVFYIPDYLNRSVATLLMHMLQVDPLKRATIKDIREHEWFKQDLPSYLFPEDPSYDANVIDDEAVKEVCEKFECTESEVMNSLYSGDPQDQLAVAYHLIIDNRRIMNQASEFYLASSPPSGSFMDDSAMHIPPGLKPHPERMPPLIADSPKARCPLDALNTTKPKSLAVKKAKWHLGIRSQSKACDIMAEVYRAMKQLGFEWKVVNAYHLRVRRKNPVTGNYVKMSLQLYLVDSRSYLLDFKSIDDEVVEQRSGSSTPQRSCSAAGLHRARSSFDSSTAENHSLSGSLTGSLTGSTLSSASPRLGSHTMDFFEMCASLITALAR

Activity	Structure (SMILES)
Active	COc1cc([C@H]2O[C@@H](c3ccc(O)c(OC)c3)[C@H](C)[C@@H]2C)ccc1O
Active	COc1cc([C@H]2O[C@@H](c3ccc(O)c(OC)c3)[C@@H](C)[C@H]2C)ccc1O
